The EC50 is the concentration giving half of the maximal effect. For orientation: IC50 means the concentration at which inhibition is half-maximal.

The source of these data is patent publication US11584747B2, “Substituted pyridopyrimidinonyl compounds useful as T cell activators” (BRISTOL-MYERS SQUIBB COMPANY, priority 2019, dated 2023).

The subject of test [1] is human venous whole blood (IFN-γ). The experiment in a line: Human whole blood IFN-γ assay. It counts as cell-based. The settings on record: whole blood, normalized to 3 μM reference compound as 100% activation, read-out: IFN-γ Whole Blood Normalized EC50. As for the experimental part: Human venous whole blood (22.5 μL per well), obtained from healthy donors, was pre-treated with compounds for one hour at 37° C. in a humidified 95% air/5% CO2 incubator. The blood was stimulated with 2.5 μL anti-human CD3 and anti-CD28 mAb at a final concentration of 1 μg/mL each for 24 hours at 37° C. IFN-γ in the supernatants was measured using AlphLISA kit (Cat #AL217).

In a further test the target is human DGKζ (Homo sapiens (Human), UniProt Q13574). The experiment in a line: DGKζ LIPGLO assay (extruded liposome substrate, ADP-Glo luminescence). It counts as biochemical.
Sequence of human DGKζ (Q13574 other isoform, or with tags, fused parts or gaps): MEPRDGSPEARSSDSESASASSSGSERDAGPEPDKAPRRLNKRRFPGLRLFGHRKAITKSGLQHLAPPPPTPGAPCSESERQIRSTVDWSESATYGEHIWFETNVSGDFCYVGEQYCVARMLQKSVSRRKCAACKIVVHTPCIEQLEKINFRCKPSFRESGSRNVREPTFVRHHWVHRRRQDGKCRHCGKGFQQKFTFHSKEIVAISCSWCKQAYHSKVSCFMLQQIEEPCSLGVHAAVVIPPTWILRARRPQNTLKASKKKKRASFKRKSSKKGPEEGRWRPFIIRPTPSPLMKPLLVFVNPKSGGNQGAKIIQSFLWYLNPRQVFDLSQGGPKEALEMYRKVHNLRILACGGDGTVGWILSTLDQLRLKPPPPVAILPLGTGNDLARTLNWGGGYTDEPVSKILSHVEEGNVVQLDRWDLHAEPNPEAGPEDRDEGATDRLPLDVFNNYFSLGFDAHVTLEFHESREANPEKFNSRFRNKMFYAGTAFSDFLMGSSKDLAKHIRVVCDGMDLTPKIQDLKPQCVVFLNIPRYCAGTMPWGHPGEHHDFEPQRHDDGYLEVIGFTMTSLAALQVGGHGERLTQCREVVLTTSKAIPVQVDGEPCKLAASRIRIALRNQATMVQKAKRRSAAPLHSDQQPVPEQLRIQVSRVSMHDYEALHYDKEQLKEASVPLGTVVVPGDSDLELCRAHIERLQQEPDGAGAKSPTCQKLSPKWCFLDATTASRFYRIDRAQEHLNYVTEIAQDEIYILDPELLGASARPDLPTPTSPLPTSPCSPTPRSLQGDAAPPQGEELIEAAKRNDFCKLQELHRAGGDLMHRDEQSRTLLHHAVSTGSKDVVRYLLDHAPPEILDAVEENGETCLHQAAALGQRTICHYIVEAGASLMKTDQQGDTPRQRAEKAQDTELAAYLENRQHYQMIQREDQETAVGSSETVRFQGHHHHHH
A further test has as its target human DGKα (Homo sapiens (Human), UniProt P23743). The experiment in a line: DGKα ADPGLO assay (detergent/lipid micelle substrate). It counts as biochemical. The procedure: DGK Alpha ADPGLO (Truncated) IC50 (uM)
The detergent/lipid micelle was prepared by combining 15 g phosphatidylserine (Avanti 840035P) and 1 g diacylglycerol (8008110) and dissolving into 150 mL chloroform in a 2 L round bottom flask. Chloroform was removed under high vacuum by rotary evaporation. […] The lipid/detergent solution was split into 5 mL aliquots and stored at −80° C.

The mark [2] stands for this setting: liposome assay, read-out: DGK zeta LIPGLO IC50.
The mark [3] stands for this setting: truncated DGK alpha, read-out: DGK alpha ADPGLO (Truncated) IC50.

Read-outs that look alike come from different tables or passages of the source.

Sequence of human DGKα (P23743 whole entry, looked up, the tested form may be a part): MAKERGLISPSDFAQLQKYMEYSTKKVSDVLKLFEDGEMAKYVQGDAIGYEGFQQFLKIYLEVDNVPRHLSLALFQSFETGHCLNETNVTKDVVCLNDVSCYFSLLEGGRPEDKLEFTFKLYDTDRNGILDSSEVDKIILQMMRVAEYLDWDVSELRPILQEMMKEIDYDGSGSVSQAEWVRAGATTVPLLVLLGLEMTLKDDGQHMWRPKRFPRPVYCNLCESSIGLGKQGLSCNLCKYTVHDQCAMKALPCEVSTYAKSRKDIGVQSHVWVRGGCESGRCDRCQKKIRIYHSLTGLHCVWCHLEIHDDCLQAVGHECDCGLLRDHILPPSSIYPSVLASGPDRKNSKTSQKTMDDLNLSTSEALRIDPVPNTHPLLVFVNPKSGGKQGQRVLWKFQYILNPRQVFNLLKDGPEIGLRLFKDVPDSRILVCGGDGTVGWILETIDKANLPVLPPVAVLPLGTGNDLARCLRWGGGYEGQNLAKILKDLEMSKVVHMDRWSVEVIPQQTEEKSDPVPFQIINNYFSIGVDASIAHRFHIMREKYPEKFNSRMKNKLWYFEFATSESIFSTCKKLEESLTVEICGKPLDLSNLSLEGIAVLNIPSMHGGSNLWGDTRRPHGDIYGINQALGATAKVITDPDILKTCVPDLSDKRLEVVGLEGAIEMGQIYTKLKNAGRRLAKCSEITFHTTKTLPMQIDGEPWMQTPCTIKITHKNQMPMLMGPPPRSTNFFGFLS

Consider `CC[C@H]1CN(C(C)c2ccc(OC(C)(C)COC)cc2)[C@H](CC)CN1c1nc(=O)n(C)c2ccc(C#N)nc12` (some centres unmarked) [Example 189], for which, in test [1], the 50% effective concentration (EC50) was 450 nM. Further, the IC50 was 17000 nM on human DGKζ (setting [2]) and 850 nM at human DGKα (setting [3]).

In the case of `CC[C@H]1CN(C(C)c2ccc(C(=O)OC)cc2)[C@H](CC)CN1c1nc(=O)n(C)c2ccc(C#N)nc12` (stereo partly drawn) [Example 265, methyl 4-(1-((2R,5S)-4-(6-cyano-1-methyl-2-oxo-1,2-dihydropyrido[3,2-d]pyrimidin-4-yl)-2,5-diethylpiperazin-1-yl)ethyl)benzoate], in test [1], the half-maximal effective concentration (EC50) came out at 1590 nM. The IC50 at human DGKζ (setting [2]) stood at 370 nM; on human DGKα (setting [3]) it was 790 nM.

As to `CC[C@@H]1CN(c2nc(=O)n(C)c3ccc(C#N)nc23)[C@@H](C)CN1C(C)c1ccc2oc(=O)n(C)c2c1` (stereo partly drawn) [Example 299, 4-((2S,5R)-5-ethyl-2-methyl-4-(1-(3-methyl-2-oxo-2,3-dihydrobenzo[d]oxazol-5-yl)ethyl)piperazin-1-yl)-1-methyl-2-oxo-1,2-dihydropyrido[3,2-d]pyrimidine-6-carbonitrile], the EC50 in test [1] worked out at 3460 nM. The half-maximal inhibitory concentration (IC50) at human DGKζ (setting [2]) worked out at 4680 nM; on human DGKα (setting [3]), 1280 nM.

For `[2H]C([2H])([2H])Oc1ccc(C(C)N2C[C@H](CC)N(c3nc(=O)n(C)c4ccc(C#N)nc34)C[C@H]2CC)cc1` (single isomer, unassigned) [Example 191], the EC50 in test [1] amounted to 290 nM. Further, the IC50 on human DGKζ (setting [2]) amounted to 260 nM; on human DGKα (setting [3]) it was 460 nM.

`CC[C@H]1CN(C(C)c2ccc(CN3CCC(OC)CC3)cc2)[C@H](CC)CN1c1nc(=O)n(C)c2ccc(C#N)nc12` (single isomer, unassigned) [Example 273]: in test [1], the EC50 was 420 nM. For the same compound, the half-maximal inhibitory concentration (IC50) worked out at 7330 nM on human DGKζ (setting [2]) and 1000 nM on human DGKα (setting [3]).

`CC[C@H]1CN(C(c2ccc(F)cc2)c2csc(C(F)(F)F)n2)[C@H](CC)CN1c1nc(=O)n(C)c2ccc(C#N)nc12` (stereo partly drawn) [Example 211, 4-((2S,5R)-2,5-diethyl-4((4-fluorophenyl)(2-(trifluoromethyl)thiazol-4-yl)methyl)piperazin-1-yl)-1-methyl-2-oxo-1,2-dihydropyrido[3,2-d]pyrimidine-6-carbonitrile]: the half-maximal effective concentration (EC50) in test [1] stood at 18 nM. Besides, the values for the IC50 at human DGKζ (setting [2]) and on human DGKα (setting [3]) were 100 nM and 46 nM, respectively.

In the case of `CCCC(c1ccc(C(F)(F)F)cc1)N1C[C@H](CC)N(c2nc(=O)n(C)c3ccc(C#N)nc23)C[C@H]1CC` (stereo partly drawn) [Example 243, 4-((2S,5R)-2,5-Diethyl-4-(1-(4-(trifluoromethyl)phenyl)butyl)piperazin-1-yl)-1-methyl-2-oxo-1,2-dihydropyrido[3,2-d]pyrimidine-6-carbonitrile], the EC50 in test [1] amounted to 59 nM. Besides, on human DGKα (setting [3]), the IC50 was 6 nM.

`CC[C@H]1CN(C(C)c2ccc(CN3CCC(F)(F)CC3)cc2)[C@H](CC)CN1c1nc(=O)n(C)c2ccc(C#N)nc12` (stereo partly drawn) [Example 278, 4-((2S,5R)-4-(1-(4-((4,4-difluoropiperidin-1-yl)methyl)phenyl)ethyl)-2,5-diethylpiperazin-1-yl)-1-methyl-2-oxo-1,2-dihydropyrido[3,2-d]pyrimidine-6-carbonitrile]: the concentration for a half-maximal effect (EC50) in test [1] (Homo sapiens) was found to be 1150 nM. Moreover, the IC50 at human DGKα (setting [3]) was found to be 2860 nM.

As to `CC[C@@H]1CN(c2nc(=O)n(C)c3ccc(C#N)nc23)[C@@H](C)CN1C(c1nnc(C2CC2)o1)C(C)C` (single isomer, unassigned) [Example 367], the 50% inhibitory concentration (IC50) on human DGKζ (liposome (LIPGLO) assay, read-out: DGK zeta (liposome assay) IC50) is 850 nM; at human DGKα (ADPGLO assay, read-out: DGK alpha ADPGLO IC50), 120 nM.

Turning to `CC[C@H]1CN(C(C)c2ccc(C(C)(C)N3CCOCC3)cc2)[C@H](CC)CN1c1nc(=O)n(C)c2ccc(C#N)nc12` (stereo partly drawn) [Example 247, 4-((2S,5R)-2,5-diethyl-4-(1-(4-(2-morpholinopropan-2-yl)phenyl)ethyl)piperazin-1-yl)-1-methyl-2-oxo-1,2-dihydropyrido[3,2-d]pyrimidine-6-carbonitrile], the IC50 is 840 nM on human DGKζ (setting [2]) and 5870 nM on human DGKα (setting [3]).
